Experimental data as given in patent publication US8778984B2, “Aldosterone synthase inhibitor” (Eli Lilly and Company, priority 2011, dated 2014).

Tests used:
[1] = tested on: aldosterone production in rats; experiment: Inhibition of Aldosterone Synthase in Rats (rat sodium-deficiency diet model); format: in vivo; details: for % Inhibition 3 hrs / % Inhibition 6 hrs: inhibition of aldosterone vs vehicle; for % Inhibition 3 hrs / Aldosterone (pg/mL) 3 hrs: 3 hrs post oral dose; for % Inhibition 3 hrs / % Inhibition 6 hrs / Aldosterone (pg/mL) 3 hrs / Aldosterone (pg/mL) 6 hrs: Example 1 10.0 mg/kg, Example 49 30.0 mg/kg, Fadrozole 1.0 mg/kg; for % Inhibition 6 hrs / Aldosterone (pg/mL) 6 hrs: 6 hrs post oral dose; for effect on aldosterone production in vivo (in words) / Aldosterone (pg/mL) 3 hrs / Aldosterone (pg/mL) 6 hrs: rat Na-deficient diet model; for effect on aldosterone production in vivo (in words): summary of Table 18; for Aldosterone (pg/mL) 3 hrs / Aldosterone (pg/mL) 6 hrs: serum
Method: The effect of compounds on aldosterone production in rats is assessed using the rat sodium-deficiency diet model. […] At 3 hours post dose rats are bled (˜0.5 mL) from the ocular orbit under isoflurane anesthesia. At 6 hours post-dose the rats are euthanized with CO2 and bled by cardiac puncture. Blood samples are clotted at least 30 minutes and serum is prepared and stored at approximately −80° C. until assayed. Aldosterone, steroids, and compound exposure are analyzed by mass spectroscopy.

human cyp11B1 = molecular target: T1, human cyp11B1 (Homo sapiens, UniProt P15538); experiment: Cortisol Inhibition Assay (V79-human cyp11B1 cells, cortisol by LC-MS); format: cell-based; details: for Selectivity Ratio: IC50(hcyp11B1)/IC50(hcyp11B2); for IC50: V79-human cyp11B1 cells, cortisol production from 1 μM 11-deoxycortisol, 24 hours incubation, read-out: IC50 (hcyp11B1)
T1 construct: expressed in transfected cells
T1 sequence (P15538 25-503): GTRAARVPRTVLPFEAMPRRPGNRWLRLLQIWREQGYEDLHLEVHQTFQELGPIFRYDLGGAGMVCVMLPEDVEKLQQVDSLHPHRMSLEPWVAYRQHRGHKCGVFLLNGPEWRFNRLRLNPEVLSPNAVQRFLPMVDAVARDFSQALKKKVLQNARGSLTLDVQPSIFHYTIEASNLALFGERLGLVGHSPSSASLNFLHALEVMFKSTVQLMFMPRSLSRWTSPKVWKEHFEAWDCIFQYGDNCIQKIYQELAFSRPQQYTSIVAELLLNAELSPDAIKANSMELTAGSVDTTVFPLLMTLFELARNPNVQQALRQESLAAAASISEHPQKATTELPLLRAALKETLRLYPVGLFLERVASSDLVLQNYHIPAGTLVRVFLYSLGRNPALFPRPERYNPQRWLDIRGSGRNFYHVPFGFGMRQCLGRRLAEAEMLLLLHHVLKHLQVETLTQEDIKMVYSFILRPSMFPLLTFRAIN
Method: Chinese hamster fibroblast cells (V79) constitutively expressing human cyp11B1 are established by transfection with a mammalian expression vector harboring the human cyp11B1 cDNA under CMV promoter and a neomycin antibiotic resistant gene for selection in mammalian cells. V79 cells are transfected in T225 cm^2 flasks with the lipofectamine transfection reagent and the human cyp11B1 cDNA. Positive clones are selected with the selection antibiotic geneticin at 1 mg/mL. Cortisol production from transfected cells is initiated by the addition of 1 μM 11-deoxycortisol in the medium. After 24 hours incubation, culture medium is collected and cortisol concentration in the medium is determined using a liquid chromatography-mass spectrometry (LC-MS) method. The cell media (100 μL) is transferred to a new deep-well 96-well plate. A Beckman Coulter FX liquid handling system (modified for use with organic solvents) with a 96-tip head is used to add an IS solution to each well (10 μl of 200 ng/mL d-4-cortisol). The wells are then extracted 3× with EtOAc (300 μl) using the FX, combining the organic layers in a new deep-well 96-well plate. The solvent is then dried in a GeneVac HT-4 or under nitrogen. The FX is then used to reconstitute the samples in 50% MeOH/water (100 μl) and the plates are heat-sealed.
A 40 μl aliquot of the sample is injected and a gradient from 20-100% MeOH in 0.95 min is initiated. […] Starting conditions are then held for 1 minute to re-equilibrate the column. An ABI QTRAP 4000 tandem mass spectrometer is used for MS/MS analysis in the positive ion mode. […] These are respectively integrated to give the peak areas. The cortisol/IS area-ratio is used to determine cortisol concentration by comparison to a standard curve. The detection limit for cortisol is 1 ng/mL.
11-Deoxycortisol and various concentrations of test compounds in 1:3 dilution increments are added to the cell culture medium. After 24 hours incubation, 100 μl of cell medium are collected and cortisol concentration determined as described above. Data are fit to a 4 parameter-fit logistics curve to determine IC50 values.

## CC1(C)CC(c2ccc(C#N)cc2F)c2cn[nH]c21 (single isomer, unassigned; isomer 1) [Example 49, 4-(6,6-Dimethyl-4,5-dihydro-1H-cyclopenta[c]pyrazol-4-yl)-3-fluoro-benzonitrile, isomer 1]
[1]
  % Inhibition 3 hrs: 46%
  % Inhibition 6 hrs: 33%
  effect on aldosterone production in vivo (in words): inhibit aldosterone production in vivo
  Aldosterone (pg/mL) 3 hrs: 1008 pg/mL
  Aldosterone (pg/mL) 6 hrs: 1704 pg/mL
Human cyp11B1
  Selectivity Ratio: 44.4
  IC50: 311 nM

## CC1(C)C[C@H](c2ccc(C#N)cc2)c2cn[nH]c21 (single isomer, unassigned) [Example 1]
[1]
  % Inhibition 3 hrs: 48%
  % Inhibition 6 hrs: 46%
  effect on aldosterone production in vivo (in words): inhibit aldosterone production in vivo
  Aldosterone (pg/mL) 3 hrs: 973 pg/mL
  Aldosterone (pg/mL) 6 hrs: 1380 pg/mL
Human cyp11B1
  Selectivity Ratio: 33.0
  IC50: 165 nM
